Measured values as given in patent publication US6395745B1, “Alkaloid halide salts of swainsonine and methods of use” (priority 1997, dated 2002).
Values after ≈ are worked out from the molar mass of the structure shown. Counter-ions that a name gives are not always drawn.

What was measured:
human MeWo melanoma = conditions: orally or by mini-osmotic pumps; cited from earlier work
[1] = test system: granulocyte-macrophage progenitor cells (CFU-GM); assay: Murine bone marrow progenitor cell assay in methylcellulose, CFU-GM; format: cell-based, C57BL/6 mouse; conditions: FIG. 11
Protocol: (§1) The healthy and GD0039 treated mice were euthanized by CO2 asphyxiation. Bone marrow (BM) cell suspensions were prepared under sterile conditions by flushing both femurs and tibiae with IMDM/FBS using a 26 gauge needle. Single cell suspensions were made up to 10.0 ml IMDM/FBS. The concentration of nucleated cells in each suspension was determined by triplicate counts on a hemocytometer. A portion of the cells was further diluted in media to the appropriate concentration before plating for the progenitor assay.
Colony-forming units (CFUs) were estimated by the methylcellulose method. One milliliter suspensions, containing 2×10^5 nucleated BM cells, in 0.1 ml of IMDM and 0.9 ml MethoCult (M3330), were plated in triplicate in 35 mm tissue culture dishes. Swainsonine hydrochloride or swainsonine were added to certain plates, in 0.1 ml of IMDM at concentrations of 30 μg/ml and 3 μg/ml, which gave final concentrations of […]. The MethoCult M3330 contains 30% FBS and 10 μg/ml erythropoietin and is designed for the growth of early erythroid progenitor cells (CFU-E), which were scored after 3 days of incubation at 37° C. in a humidified atmosphere containing 5% CO2. […] Colonies containing more than 20 cells were scored using an inverted microscope with brightfield optics and 40× or 100× magnification. […]

HT29m colon carcinoma = conditions: orally or by mini-osmotic pumps; cited from earlier work
[2] = Accelerated stability of stressed solid samples, percentage remaining by HPLC; format: physicochemical; conditions: for percentage remaining, condition (e): 40° C. with 75% relative humidity for seven days; for percentage remaining, condition (d): 70° C. with low humidity for seven days; for percentage remaining, condition (c): 105° C. under nitrogen for seven days (*=average of two samples); for percentage remaining, condition (b): 105° C. with atmospheric oxygen for seven days (*=average of two samples); for percentage remaining, condition (a): UV light for 7 days
Excerpt: Samples of swainsonine free base synthesized using synthetic routes developed by Dr. David Dime (Toronto Research Chemicals, Toronto, Ontario) and Dr. William Pearson (University of Michigan, Ann Arbor, Mich.), were recrystallized to obtain either the hydrochloride salt, the hydrobromide salt or the free base of swainsonine. Samples were weighed and exposed to the conditions described below.
To model long-term stability or shelf life, various conditions were used to accelerate the decomposition process. Samples of crystalline prism swainsonine hydrochloride salt and swainsonine free base (a white, fluffy powder obtained from swainsonine hydrochloride were recrystallized from chloroform-methanol-diethyl ether) were weighed and exposed to conditions described below (stressed samples). Unstressed samples were prepared at 1 mg/ml concentration and chromatographed in sextuplicate on each run. After the indicated time interval each stressed sample was diluted with mobile phase at the same concentration as the unstressed sample. The percentage remaining swainsonine hydrochloride or swainsonine free base was calculated based on the percentage of either the hydrochloride or the free base in the unstressed sample.
The conditions included (a) UV light for 7 days; (b) 105° C. with atmospheric oxygen for seven days (*=average of two samples); (c) 105° C. under nitrogen for seven days (*=average of two samples); (d) 70° C. with low humidity for seven days; and (e) 40° C. with 75% relative humidity for seven days. Other tests include (f) UV for 24 hours; (g) 100° C. aqueous solution for two hours; (h) aqueous acidic treatment for 24 hours; (i) aqueous alkali treatment for 4 hours; and (j) (aqueous) 3% hydrogen peroxide for 4 hours. […] The physical properties of swainsonine hydrochloride compared to the free base and swainsonine hydrobromide, and swainsonine hydrofluoride are shown in Table 5.

tumor cell invasion = conditions: in vitro; cited from earlier work
NK cell = conditions: cited from earlier work
[3] = mouse, in vivo; cited from earlier work
[4] = test system: early erythroid progenitor cells (CFU-E); assay: Murine bone marrow progenitor cell assay in methylcellulose, CFU-E; format: cell-based, C57BL/6 mice
Protocol: Pathogen-free C57BL/6 female mice, 8-9 weeks old, obtained from Jackson Laboratories were used. The room environment and photoperiod were controlled: 24° C.; humidity, 50±20%; 12 hr light and 12 hr dark. Mice were housed one per cage with ad libitum accesses to standard pelleted commercial laboratory diet and to sterile (autoclaved) tap water.
Swainsonine hydrochloride was manufactured by Seres Laboratories, Calif. FBS and methylcellulose (MethoCult M3330) were purchased from Stem Cell Technologies, Inc. (Vancouver. BC). Iscove's modified Dulbecco's medium was prepared using powdered media from Gibco BRL, deionized water and filter sterilization. For the handling of cells, the media was supplemented with 2% FBS and 50 μM β-mercaptoethanol (referred to as IMDM/FBS).
as §1
Colony-forming units (CFUs) were estimated by the methylcellulose method. One milliliter suspensions, containing 2×10^5 nucleated BM cells, in 0.1 ml of IMDM and 0.9 ml MethoCult (M3330), were plated in triplicate in 35 mm tissue culture dishes. […] The MethoCult M3330 contains 30% FBS and 10 μg/ml erythropoietin and is designed for the growth of early erythroid progenitor cells (CFU-E), which were scored after 3 days of incubation at 37° C. in a humidified atmosphere containing 5% CO2. […] Colonies containing more than 20 cells were scored using an inverted microscope with brightfield optics and 40× or 100× magnification.

[5] = mouse, in vivo; cited from earlier work; remark: listed apart in the source
LAK cell = conditions: cited from earlier work
[6] = Solubility in distilled water at room temperature; format: physicochemical; conditions: distilled water, water
Protocol: The melting point of the clear swainsonine hydrochloride crystal (prism) was 190-191° C. The solubility of swainsonine hydrochloride in distilled water at room temperature was about 3 g/ml, in contrast to the solubility of swainsonine free base, which is about 0.8 g/ml (see Table 5).

murine tumor cells = conditions: organ-colonization and spontaneous metastasis assays; cited from earlier work
[7] = test system: splenic and bone marrow (BM) cell; conditions: cited from earlier work

SMILES: O[C@H]1[C@H]2[C@H](O)CCCN2C[C@H]1O [swainsonine]
- growth rate of tumor xenografts (human MeWo melanoma): inhibited the growth rate
- effect on granulocyte-macrophage progenitor cells in vitro [1]: stimulate
- growth rate of tumor xenografts (HT29m colon carcinoma): inhibited the growth rate
- percentage remaining, condition (e) ([2]; listed as SW): 102.5%
- percentage remaining, condition (d) ([2]; listed as SW): 98.5%
- percentage remaining, condition (c) ([2]; listed as SW): 9.7%*
- percentage remaining, condition (b) ([2]; listed as SW): 20.0%*
- percentage remaining, condition (a) ([2]; listed as SW): 99.3%
- tumor cell invasion through extracellular matrix (tumor cell invasion): block tumor cell invasion
- NK cell activity (NK cell): increase
- lethality of various chemotherapeutic agents [3]: protect against the lethality
- increase in the number of early CFU-E ([4]; 0.03 μg/ml to 10 μg/ml in vitro): ~3 fold
- number of early CFU-E, counted on day 3 ([4]; added to methylcellulose in vitro): significantly increased
- mean CFU-E of triplicate counts ± SD from 2 × 10^5 nucleated BM cells ([4]; mouse 1 (control), 0.3 μg/ml in vitro, in vitro control 54 ± 12): 108 ± 21
- mean CFU-E of triplicate counts ± SD from 2 × 10^5 nucleated BM cells ([4]; mouse 1 (control), 3 μg/ml in vitro, in vitro control 54 ± 12): 101 ± 12
- mean CFU-E of triplicate counts ± SD from 2 × 10^5 nucleated BM cells ([4]; mouse 2 (GD0039 treated in vivo, 20 μg/day for four days), 0.3 μg/ml in vitro): 71 ± 15
- mean CFU-E of triplicate counts ± SD from 2 × 10^5 nucleated BM cells ([4]; mouse 2 (GD0039 treated in vivo, 20 μg/day for four days), 3 μg/ml in vitro): 103 ± 1
- lethal doses of irradiation [5]: protect
- LAK cell activity (LAK cell): increase
- solubility ([6]; Table 5): 800 mg/mL (≈ 4620 mM)
- solubility ([6]; room temperature): ~800 mg/mL (≈ 4620 mM)
- metastatic potential of treated murine tumor cells (murine tumor cells): less metastatic
- splenic and bone marrow (BM) cell proliferation [7]: increase

SMILES: O[C@H]1[C@H]2[C@H](O)CCCN2C[C@H]1O [swainsonine hydrobromide, Swainsonine hydrobromide salt]
- percentage remaining, condition (e) ([2]; hydrobromide salt): 91.4%
- percentage remaining, condition (d) ([2]; hydrobromide salt): 95.5%
- percentage remaining, condition (c) ([2]; hydrobromide salt): 92.1%
- percentage remaining, condition (b) ([2]; hydrobromide salt): 88.3%
- percentage remaining, condition (a) ([2]; hydrobromide salt): 71.1%
